{"source": "patent EP2353599A1", "about": "“8-hydroxyquinolines as inhibitors of cathepsin B” (University of Ljubljana, priority 2010, dated 2011)", "key": {"Cathepsin B [1]": {"target": "T1, Cathepsin B (Homo sapiens, UniProt P07858)", "test": "Cathepsin B endopeptidase activity, enzyme kinetics with substrate Z-RR-AMC", "assay_type": "biochemical", "procedure": "The effect of 8-hydroxyquinolines on cathepsin B enzymatic activity was assessed using enzyme kinetics. First, the effect of 8-hydroxyquinolines on cathepsin B endopeptidase activity was assessed using the cathepsin B specific endopeptidase substrate Z-RR-AMC. 5 µl of the Z-RR-AMC (final concentration 60, 180 and 360 µM) and 5 µl of respective compound at increasing concentrations were added to wells of a black microplate. 90 µl of human recombinant cathepsin B was then added to a final concentration of 0.4 nM in activation buffer (100 mM phosphate buffer, pH 6.0 with 0.1 % PEG, 5 mM DTT and 1.5 mM EDTA). All assay mixtures contained a constant amount of DMSO, i.e. 5 %. Formation of fluorescent degradation product was continuously monitored at 380 nm ± 20 nm excitation and […] ± 10 nm emission wavelengths on Tecan Safire^2™ at 37°C. Mechanism and the constant of inhibition (Ki) of cathepsin B endopeptidase activity were determined using the graphical method according to Cornish-Bowden (Cornish-Bowden A: A Simple Graphical Method for Determining the Inhibition Constants of Mixed, Uncompetitive and Non-Competitive Inhibitors. Biochem J 1974, 137:143-4.) and using the SigmaPlot® 11, Enzyme Kinetics Module™ 1.3. Table I. Results of testing the compounds according to Formula (I) on cathepsin B endopeptidase activity."}, "cathepsin H": {"target": "T2, cathepsin H (Homo sapiens, UniProt P09668)", "T2 sequence (P09668 98-335)": "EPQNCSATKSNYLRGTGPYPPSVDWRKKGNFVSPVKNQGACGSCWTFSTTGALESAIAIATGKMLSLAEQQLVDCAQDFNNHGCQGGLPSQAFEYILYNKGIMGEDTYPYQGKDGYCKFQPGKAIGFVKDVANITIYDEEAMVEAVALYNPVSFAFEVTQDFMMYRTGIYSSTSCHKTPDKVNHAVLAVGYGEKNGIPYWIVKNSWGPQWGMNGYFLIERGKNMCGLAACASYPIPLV", "test": "Selectivity: Ki against cathepsin H, substrate R-AMC", "assay_type": "biochemical", "procedure": "Activation buffer used with cathepsin L was 100 mM acetate buffer, pH 5.5 with 0.1 % PEG, 5 mM DTT and 1.5 mM EDTA and with cathepsin H was 100 mM phosphate buffer, pH 6.8 with 0.1 % PEG, 5 mM DTT and 1.5 mM EDTA. Table II. Ki values for 5-nitro-8-hydroxyquinoline determined against cathepsins B, L and H."}, "Cathepsin B [2]": {"target": "T1, Cathepsin B", "test": "Reversibility by mass spectrometry (ESI-MS of cathepsin B after incubation and dialysis)", "assay_type": "binding", "conditions": "equimolar inhibitor, 1 h room temperature, dialysis", "procedure": "Third, reversibility of 5-nitro-8-hydroxyquinoline was also checked with mass spectrometry. Cathepsin B (4.4 µM) was activated in the activation buffer for 5 min at 37 °C. Afterwards, an equimolar amount of the inhibitor was added to the enzyme and incubated for 1 h at room temperature. The mixture was dialyzed against water five times using Microcon Centrifugal Filter Devices YM-10 to avoid salt interferences and to remove unbound molecules of the test compound. Samples were then prepared by adding an equal volume of acetonitrile containing 0.1 % formic acid and analyzed with ESI-MS on an AutoSpec Q instrument. As a positive control CA-074 was used."}, "MCF-10A neoT cells [3]": {"test_system": "MCF-10A neoT cells", "test": "Three-dimensional in vitro invasion model based on spheroids", "assay_type": "cell-based", "conditions": "10 µM, Matrigel", "procedure": "The ability of 5-nitro-8-hydroxyquinoline to inhibit tumour cell invasion was also tested in a three-dimensional in vitro invasion model based on spheroids. Multicellular tumour spheroids were prepared according to hanging drop method (Kelm JM, Timmins NE, Brown CJ, Fussenegger M, Nielsen LK: Method for generation of homogeneous multicellular tumour spheroids applicable to a wide variety of cell types. Biotechnol Bioeng 2003, 83:173-80.). Drops (20 µl) of MCF-10A neoT cell suspension ([…]) were placed onto the lids of 10 cm dishes which were inverted over dishes containing 10 ml of PBS. Upon inversion of the tray the cells accumulated at the free liquid-air interface in this way forming spheroids after sufficient sedimentation time, in our case 6 days. Wells of a 24-well plate were filled with 400 µl of Matrigel (5mg/ml) containing the 5-nitro-8-hydroxyquinoline at the final concentration of 10 µM. After 15 min incubation at 37 °C 1 ml of medium with the test compound (10 µM) was placed on top of Matrigel. Spheroids were then carefully plated into the wells and incubated at 37 °C in a humidified atmosphere containing 5 % CO2. Images of spheroids were obtained using an Olympus IX 81 motorized inverted microscope and CellR software."}, "MCF-10A neoT cell": {"test_system": "MCF-10A neoT cell", "test": "DQ-collagen IV degradation by fluorescence microscopy", "assay_type": "cell-based", "conditions": "10 µM, 24 h", "procedure": "5-nitro-8-hydroxyquinoline was also tested for the ability to inhibit intracellular and extracellular degradation of DQ-collagen IV. First, inhibitory effect was observed using fluorescence microscopy. Wells of precooled Lab-Tek™ Chambered Coverglass (Nalge Nunc International) were coated with 25 µg/ml of the quenched fluorescent substrate DQ-collagen IV suspended in 40 µl of 100 % Matrigel for 10 min at 4°C. DQ-collagen IV/Matrigel matrix was allowed to polymerize for 40 min at 37°C. 400 µl of MCF-10A neoT cell suspension (1.5x10^5/ml) in growth medium containing 2 % Matrigel and 10 µM of 5-nitro-8-hydroxyquinoline were plated onto gelled Matrigel. After 24 h incubation at 37°C with 5 % CO2 the samples were monitored for fluorescent degradation products using Olympus IX 81 motorized inverted microscope and CellR software. CA-074 and CA-074Me were used as positive controls."}, "MCF-10A neoT cells [4]": {"test_system": "MCF-10A neoT cells", "test": "Extracellular DQ-collagen IV degradation, fluorescence intensity in medium", "assay_type": "cell-based", "conditions": "Homo sapiens, MCF-10A-neoT, 3 h, DQ-collagen IV 5 µg/ml", "procedure": "Two experiments were set to differentiate between inhibition of intracellular and extracellular DQ-collagen IV degradation. Inhibition of extracellular DQ-collagen IV degradation was observed by monitoring the fluorescence intensity of degraded DQ-collagen IV in the medium in which MCF-10A neoT cells were grown. 5 × 10^4 MCF-10A neoT cells were plated into wells of a 96-well black plate and were allowed to attach over night. Cells were then incubated with 100 µl PBS containing 5-nitro-8-hydroxyquinoline, CA-074 or CA-074Me (10 µM) and DQ-collagen IV (5 µg/ml) for 3 h. Afterwards, the 80 µl of PBS was transferred into the empty wells and the fluorescence intensity was measured at 495 nm ± 5 nm excitation and 515 nm ± 5 nm emission wavelengths on Tecan Safire^2™. The experiment was performed in 8 parallels and DMSO was used as a control."}}, "data": [{"compound": "O=[N+]([O-])c1ccc(O)c2ncccc12", "note": "[Compound 1, 5-nitro-8-hydroxyquinoline]", "values": [{"measurement": "Mechanism of inhibition", "setting": "Cathepsin B [1]; cathepsin B endopeptidase activity", "value": "uncompetitive inhibition"}, {"measurement": "Ki", "setting": "Cathepsin B [1]; endopeptidase activity, substrate Z-RR-AMC, pH 6.0, 37°C", "value": "37.7 ± 3.5", "unit": "µM"}, {"measurement": "Mechanism of inhibition", "setting": "cathepsin H", "value": "mixed"}, {"measurement": "Ki", "setting": "cathepsin H; substrate R-AMC, pH 6.8", "value": "220.8 ± 2.1", "unit": "µM"}, {"measurement": "Molecular weight of cathepsin B after incubation with inhibitor", "setting": "Cathepsin B [2]", "value": "did not alter"}, {"measurement": "inhibition of tumour invasion in three-dimensional spheroid model", "setting": "MCF-10A neoT cells [3]", "value": "completely abrogated the invasive activity at the edge of the spheroid"}, {"measurement": "inhibition of DQ-collagen IV degradation (fluorescence microscopy)", "setting": "MCF-10A neoT cell", "value": "inhibited both intracellular and extracellular DQ-collagen IV degradation"}, {"measurement": "inhibition at 10 µM", "setting": "MCF-10A neoT cells [4]", "value": 35.3, "unit": "%"}]}]}
